The text below walks through data of patent US6117841A, “Substituted peptidylamine calcium channel blockers” (Warner-Lambert Company, priority 1999, dated 2000).

Structures are written as SMILES. pIC50: −log10 of the molar value. Where two headings read alike, the source gives them in different places.

For this experiment, the target named is T1, N-type Ca^2+ Channel (Homo sapiens, UniProt Q00975).
T1 construct: host or cells: IMR-32 cells differentiated with dibutyryl cAMP and bromodeoxyuridine
T1 sequence (Q00975 whole entry): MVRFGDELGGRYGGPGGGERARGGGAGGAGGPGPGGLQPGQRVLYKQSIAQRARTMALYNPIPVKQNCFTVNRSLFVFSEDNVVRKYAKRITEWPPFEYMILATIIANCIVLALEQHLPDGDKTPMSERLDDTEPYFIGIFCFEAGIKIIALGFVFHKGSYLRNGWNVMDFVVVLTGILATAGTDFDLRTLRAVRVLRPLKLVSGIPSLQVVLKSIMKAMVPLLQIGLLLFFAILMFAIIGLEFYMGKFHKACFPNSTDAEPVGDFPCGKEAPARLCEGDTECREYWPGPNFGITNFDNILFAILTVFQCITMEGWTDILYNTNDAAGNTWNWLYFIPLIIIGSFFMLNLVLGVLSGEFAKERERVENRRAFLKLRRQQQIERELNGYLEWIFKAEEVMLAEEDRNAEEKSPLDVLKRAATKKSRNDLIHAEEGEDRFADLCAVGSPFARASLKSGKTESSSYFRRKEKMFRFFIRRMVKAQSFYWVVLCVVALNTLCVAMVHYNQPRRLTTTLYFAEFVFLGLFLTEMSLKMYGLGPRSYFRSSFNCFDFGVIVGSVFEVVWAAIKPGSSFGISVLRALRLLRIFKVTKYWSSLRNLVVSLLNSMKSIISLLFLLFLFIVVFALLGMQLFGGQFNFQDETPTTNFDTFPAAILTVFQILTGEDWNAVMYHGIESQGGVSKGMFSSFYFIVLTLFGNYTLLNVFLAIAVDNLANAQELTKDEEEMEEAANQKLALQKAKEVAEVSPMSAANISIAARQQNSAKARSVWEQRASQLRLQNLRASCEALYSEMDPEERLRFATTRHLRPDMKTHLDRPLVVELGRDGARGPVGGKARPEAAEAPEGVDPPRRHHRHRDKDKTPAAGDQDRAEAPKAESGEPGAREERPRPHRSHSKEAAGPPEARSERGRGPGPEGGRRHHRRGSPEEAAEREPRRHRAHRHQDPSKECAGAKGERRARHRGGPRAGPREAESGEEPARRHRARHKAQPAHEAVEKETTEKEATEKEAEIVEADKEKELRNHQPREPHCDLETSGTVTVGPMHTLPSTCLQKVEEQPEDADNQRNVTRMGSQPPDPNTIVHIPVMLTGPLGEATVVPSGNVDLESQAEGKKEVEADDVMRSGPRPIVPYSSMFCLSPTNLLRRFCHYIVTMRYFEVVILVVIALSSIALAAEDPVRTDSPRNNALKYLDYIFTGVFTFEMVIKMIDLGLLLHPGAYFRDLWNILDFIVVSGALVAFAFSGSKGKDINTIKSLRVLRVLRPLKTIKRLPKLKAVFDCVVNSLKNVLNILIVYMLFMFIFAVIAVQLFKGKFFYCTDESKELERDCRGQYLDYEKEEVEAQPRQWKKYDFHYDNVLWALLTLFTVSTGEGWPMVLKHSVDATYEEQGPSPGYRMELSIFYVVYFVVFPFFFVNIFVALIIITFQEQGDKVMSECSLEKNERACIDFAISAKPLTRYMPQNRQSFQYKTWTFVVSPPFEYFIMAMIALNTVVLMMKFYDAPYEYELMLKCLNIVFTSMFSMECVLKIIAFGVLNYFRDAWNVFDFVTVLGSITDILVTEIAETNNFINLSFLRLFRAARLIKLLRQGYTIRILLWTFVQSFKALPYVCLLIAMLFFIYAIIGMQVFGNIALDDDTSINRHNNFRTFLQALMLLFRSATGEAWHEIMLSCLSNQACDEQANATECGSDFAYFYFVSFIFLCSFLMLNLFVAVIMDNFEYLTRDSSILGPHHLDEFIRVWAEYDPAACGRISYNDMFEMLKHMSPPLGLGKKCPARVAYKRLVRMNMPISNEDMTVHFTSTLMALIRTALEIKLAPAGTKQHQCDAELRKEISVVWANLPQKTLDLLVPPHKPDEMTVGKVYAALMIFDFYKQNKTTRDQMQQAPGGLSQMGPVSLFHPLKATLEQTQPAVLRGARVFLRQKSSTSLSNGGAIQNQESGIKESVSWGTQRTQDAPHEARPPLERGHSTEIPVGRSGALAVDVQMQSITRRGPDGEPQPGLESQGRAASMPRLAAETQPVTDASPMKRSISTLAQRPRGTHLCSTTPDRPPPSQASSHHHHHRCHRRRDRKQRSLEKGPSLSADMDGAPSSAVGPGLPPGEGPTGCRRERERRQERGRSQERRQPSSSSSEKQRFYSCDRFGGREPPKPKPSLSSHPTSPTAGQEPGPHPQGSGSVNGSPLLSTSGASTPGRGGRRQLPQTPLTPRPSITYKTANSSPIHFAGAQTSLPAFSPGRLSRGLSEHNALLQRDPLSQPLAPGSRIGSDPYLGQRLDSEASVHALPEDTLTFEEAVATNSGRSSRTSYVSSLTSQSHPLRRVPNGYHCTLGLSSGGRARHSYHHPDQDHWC
T1 sequence (P54284 whole entry partner): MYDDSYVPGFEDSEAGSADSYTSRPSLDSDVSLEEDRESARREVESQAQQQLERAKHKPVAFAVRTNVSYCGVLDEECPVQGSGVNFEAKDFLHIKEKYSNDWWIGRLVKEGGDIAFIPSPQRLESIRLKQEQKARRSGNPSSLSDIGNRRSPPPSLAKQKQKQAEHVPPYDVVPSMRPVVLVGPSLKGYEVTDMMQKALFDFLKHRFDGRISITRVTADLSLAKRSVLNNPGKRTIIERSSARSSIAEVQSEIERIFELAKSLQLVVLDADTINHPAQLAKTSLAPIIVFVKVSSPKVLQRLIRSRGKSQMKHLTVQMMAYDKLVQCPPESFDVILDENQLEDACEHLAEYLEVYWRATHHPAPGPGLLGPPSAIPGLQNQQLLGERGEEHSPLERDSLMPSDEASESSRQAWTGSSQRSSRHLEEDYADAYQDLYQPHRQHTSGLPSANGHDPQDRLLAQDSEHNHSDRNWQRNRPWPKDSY
T1 sequence (P54289 25-946 partner limits assumed): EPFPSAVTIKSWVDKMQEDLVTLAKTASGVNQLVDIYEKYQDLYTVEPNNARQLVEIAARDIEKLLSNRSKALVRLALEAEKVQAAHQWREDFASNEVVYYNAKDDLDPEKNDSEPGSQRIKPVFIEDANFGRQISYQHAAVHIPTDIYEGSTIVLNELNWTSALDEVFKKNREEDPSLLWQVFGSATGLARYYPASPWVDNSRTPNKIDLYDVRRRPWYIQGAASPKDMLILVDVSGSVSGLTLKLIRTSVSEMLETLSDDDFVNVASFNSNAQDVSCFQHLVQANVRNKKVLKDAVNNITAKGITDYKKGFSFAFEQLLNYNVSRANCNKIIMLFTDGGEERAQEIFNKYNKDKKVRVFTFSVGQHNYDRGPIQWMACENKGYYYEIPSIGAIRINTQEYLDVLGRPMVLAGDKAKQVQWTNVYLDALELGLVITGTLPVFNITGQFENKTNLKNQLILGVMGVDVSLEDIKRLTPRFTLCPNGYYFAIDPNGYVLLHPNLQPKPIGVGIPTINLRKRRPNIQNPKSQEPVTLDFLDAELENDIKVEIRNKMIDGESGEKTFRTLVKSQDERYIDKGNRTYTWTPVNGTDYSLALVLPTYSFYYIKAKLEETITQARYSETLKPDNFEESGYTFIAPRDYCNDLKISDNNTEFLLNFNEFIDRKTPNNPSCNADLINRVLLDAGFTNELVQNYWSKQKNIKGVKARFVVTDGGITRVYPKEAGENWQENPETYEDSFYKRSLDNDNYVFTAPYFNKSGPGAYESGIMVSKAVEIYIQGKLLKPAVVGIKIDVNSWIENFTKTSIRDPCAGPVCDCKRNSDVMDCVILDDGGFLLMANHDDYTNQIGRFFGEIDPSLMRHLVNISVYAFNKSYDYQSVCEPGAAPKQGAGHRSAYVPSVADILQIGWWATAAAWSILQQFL
T1 sequence (P54289 947-1103 partner limits assumed): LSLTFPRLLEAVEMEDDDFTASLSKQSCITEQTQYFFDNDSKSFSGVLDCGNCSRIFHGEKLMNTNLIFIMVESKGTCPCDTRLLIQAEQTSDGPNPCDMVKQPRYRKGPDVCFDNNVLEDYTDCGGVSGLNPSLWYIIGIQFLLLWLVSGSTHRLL
Kind of experiment: Measurement of N-type Ca2+ channel blocking potencies in IMR-32 cells using the fluorescent Ca2+ indicator Indo-1. Type of experiment: cell-based. The method, then:
Measurement of N-type Ca^2+ Channel Blocking Potencies of Compounds in IMR-32 Cells Using the Fluorescent Ca^2 + Indicator Indo-1
IMR-32 cells are a human tumoral cell line of neural origin. […] Calcium flux into these cells may be induced by stimulation with elevated potassium concentrations. The L-channel component of calcium flux may be blocked by adding 5 μM nitrendipine. The remaining component of calcium entry into the IMR-32 cells is due to calcium flux through N-type calcium channels. Intracellular calcium concentrations are measured using the fluorescent calcium indicator Indo-1. The effect of drug concentration on calcium uptake is studied.
The IMR-32 cell line was obtained from the American Type Culture Collection (Rockville, Md.). Cells were grown in Eagle's Minimum Essential Medium with Earle's salts supplemented with 10% fetal bovine serum, 2 mM L-Gln and antibiotic/antimycotic mixture (Gibco). At approximately 80% confluency, differentiation was induced by the addition of 1 mM dibutyryl cAMP and 2.5 μM bromodeoxyuridine to the medium. After 7 to 13 days of differentiation, cells were detached using 0.5 mM EDTA and loaded with 5 μM Indo-1 acetoxymethyl ester (Molecular Probes, Eugene, Oreg.) at 30° C. for 45 minutes. Loaded cells were washed twice, resuspended (~10^7 cells/mL) in assay buffer (10 mM HEPES/Tris pH 7.4 in Hank's Balanced Salt Solution without bicarbonate or phenol red containing 0.5% bovine serum albumin) and kept on ice until use. Fluorescence measurements were carried out in a Photon Technology International (PTI, South Brunswick, N.J.) Model RF-F3004 spectrofluorometer with dual emission monochromators using excitation at 350 nm and emission at 400 and 490 nm. The instrument was equipped with a thermostated cuvette holder with stirring capabilities as well as with a computer-controlled pump which allowed for reagent addition during measurement. Instrument control and data collection was done by PTI's OSCAR software running on an IBM compatible computer. Different concentrations of the test compounds (60 μL in dimethyl sulfoxide) were added to 5.94 mL of assay buffer containing approximately 3×10^6 loaded cells, and 5 μM nitrendipine (in 30 μL EtOH) to block L-type Ca^2+ channels. Samples were incubated for 10 minutes at 30° C. and then aliquoted into three 10×10 mm disposable acrylic cuvettes. Emission signals at 400 and 490 nm were acquired from each cuvette at 30° C. for 50 seconds. At 20 seconds after the start of reading, cells were depolarized by the addition of 160 μL of stimulation solution (1 M KCl, 68 mM CaCl2) to the cuvette via the computer-controlled pump. Ratio of dual emission signals (400 nm/ 490 nm), which is proportional to intracellular Ca^2+ concentration, was plotted against time, and the difference between maximal response after stimulation and basal value (before stimulation) was determined. Values obtained in this way were plotted as a function of drug concentration. IC50 values of test compounds were calculated by fitting a four-parameter logistic function to the data using the least squares method.

Where [1] appears, read: 1 μM, IMR-32 cells, 5 μM nitrendipine.
Setting [2] is: 10 μM, IMR-32 cells, 5 μM nitrendipine.

Turning to `CC(C)C[C@@H](C(=O)N[C@@H](Cc1ccc(OCc2ccccc2)cc1)C(=O)NC(C)(C)C)N(C)C(C)CO` (mixture of isomers) [Example 88, [S-[R*,R*,(RS)]]-2-[(2-Hydroxy-1-methyl-ethyl)-methyl-amino]-4-methyl-pentanoic acid [2-(4-benzyloxy-phenyl)-1-tert-butylcarbamoyl-ethyl]-amide], under setting [1], the “IMR 32 % of Blockade @ 1 μM” value was determined as 30%.
For the compound `CC(C)C[C@@H](C(=O)N[C@@H](Cc1ccc(OCc2ccccc2)cc1)C(=O)NC(C)(C)C)N(C)C` (relative stereo) [Example 1, [S-(R*,R*)]-2-Dimethylamino-4-methyl-pentanoic acid [2-(4-benzyloxy-phenyl)-1-tert-butylcarbamoyl-ethyl]-amide], the pIC50 (usually −log10 of the IC50, conventionally taken in molar units) (IMR-32 cells, K+ depolarization, 5 μM nitrendipine to block L-type channels, read-out: IMR 32 IC50) is 5.64.
As for `CC(C)C[C@@H](C(=O)N[C@@H](Cc1ccc(OCc2ccccc2)cc1)C(=O)N1CCCCC1)N(C)C` (relative stereo) [Example 2, [S-(R*,R*)]-2-Dimethylamino-4-methyl-pentanoic acid [2-(4-benzyloxy-phenyl)-1-(piperidine-1-carbonyl)-ethyl]-amide], the “IMR 32 % of Blockade @ 1 μM” value under setting [1] is 36%. Further, the “IMR 32 % of Blockade @ 10 μM” value under setting [2] is 92%.
Taken in the same sequence, the figures for `CC(C)C[C@@H](C(=O)N[C@@H](Cc1ccc(OCc2ccccc2)cc1)C(=O)NCCN1CCCCC1)N(C)C` (relative stereo) [Example 3, [S-(R*,R*)]-2-Dimethylamino-4-methyl-pentanoic acid [2-(4-benzyloxy-phenyl)-1-(2-piperidin-1-yl-ethylcarbamoyl)-ethyl]-amide] were 21% and 70%.
Consider `CC(C)C[C@@H](C(=O)N[C@@H](Cc1ccc(OCc2ccccc2)cc1)C(=O)N1CCN(Cc2ccccc2)CC1)N(C)C` (relative stereo) [Example 4, [S-(R*,R*)]-2-Dimethylamino-4-methyl-pentanoic acid [1-(4-benzyloxy-benzyl)-2-(4-benzyl-piperazin-1-yl)-2-oxo-ethyl]-amide], for which the “IMR 32 % of Blockade @ 1 μM” value under setting [1] was 50%. Further, under setting [2], the “IMR 32 % of Blockade @ 10 μM” value was determined as 94%.
Take `CC(C)C[C@@H](C(=O)N[C@@H](Cc1ccc(OCc2ccccc2)cc1)C(=O)NC1CCN(Cc2ccccc2)CC1)N(C)C` (relative stereo) [Example 5, [S-(R*,R*)]-2-Dimethylamino-4-methyl-pentanoic acid [2-(4-benzyloxy-phenyl)-1-(1-benzyl-piperidin-4-yl-carbamoyl)-ethyl]-amide]: the “IMR 32 % of Blockade @ 1 μM” value under setting [1] amounted to 24%. For the same compound, the “IMR 32 % of Blockade @ 10 μM” value under setting [2] stood at 81%.
With `CC(C)C[C@@H](C(=O)N[C@@H](Cc1ccc(OCc2ccccc2)cc1)C(=O)N1CCN(C)CC1)N(C)C` (relative stereo) [Example 6, [S-(R*,R*)]-2-Dimethylamino-4-methyl-pentanoic acid [1-(4-benzyloxy-benzyl)-2-(4-methyl-piperazin-1-yl)-2-oxo-ethyl]-amide], the “IMR 32 % of Blockade @ 1 μM” value was 16% and the “IMR 32 % of Blockade @ 10 μM” value worked out at 31%.
Take `CC(C)CCN(C)[C@@H](CC(C)C)C(=O)N[C@@H](Cc1ccc(OCc2ccccc2)cc1)C(=O)N1CCCCC1` (relative stereo) [Example 8, [S-(R*,R*)]-4-Methyl-2-[methyl-(3-methyl-butyl)-amino]-pentanoic acid [1-(4-benzyloxy-benzyl)-2-oxo-2-piperidin-1-yl-ethyl]-amide]: under setting [1], the “IMR 32 % of Blockade @ 1 μM” value amounted to 70%. In addition, the “IMR 32 % of Blockade @ 10 μM” value under setting [2] is 87%.
Taken in the same sequence, the figures for `CC(C)CCN(C)[C@@H](CC(C)C)C(=O)N[C@@H](Cc1ccc(OCc2ccccc2)cc1)C(=O)NCCN1CCCCC1` (relative stereo) [Example 9, [S-(R*,R*)]-4-Methyl-2-[methyl-(3-methyl-butyl)-amino]-pentanoic acid [2-(4-benzyloxy-phenyl)-1-(2-piperidin-1-yl-ethylcarbamoyl)-ethyl]-amide] were 60% and 89%.
